According to PubChem BioAssay AID651642 (Sanford-Burnham Center for Chemical Genomics, 2012):

Legend:
H9c2 = test: cardiomyocyte survival under oxidative or metabolic stress – cell-based, panel, H9c2 and HL-1, H2O2, 2-deoxyglucose, ATP luminescence, SAR follow-up (AID 651642)
HL-1 = test: as above
[1] = H9c2/HL-1 cardiomyocyte 2-deoxyglucose damage, mean of runs, with 2-deoxyglucose, mean IC50 across panel
[2] = H9c2/HL-1 cardiomyocyte 2-deoxyglucose damage, run 1, with 2-deoxyglucose
[3] = H9c2/HL-1 cardiomyocyte 2-deoxyglucose damage, run 2, with 2-deoxyglucose
[4] = H9c2/HL-1 cardiomyocyte 2-deoxyglucose damage, run 3, with 2-deoxyglucose
[5] = H9c2/HL-1 cardiomyocyte 2-deoxyglucose damage, run 4, with 2-deoxyglucose
[6] = H9c2/HL-1 cardiomyocyte H2O2 oxidative damage, run 1, with H2O2
[7] = H9c2/HL-1 cardiomyocyte H2O2 oxidative damage, run 2, with H2O2
[8] = H9c2/HL-1 cardiomyocyte H2O2 oxidative damage, run 3, with H2O2
[9] = H9c2/HL-1 cardiomyocyte H2O2 oxidative damage, run 4, with H2O2
[10] = H9c2/HL-1 cardiomyocyte H2O2 oxidative damage, mean of runs, with H2O2, mean IC50 across panel

SMILES | IC50 (H9c2; [1]) | IC50 (H9c2; [2]) | IC50 (H9c2; [3]) | IC50 (H9c2; [4]) | IC50 (H9c2; [5]) | IC50 (H9c2; [6]) | IC50 (H9c2; [7]) | IC50 (H9c2; [8]) | IC50 (H9c2; [9]) | IC50 (HL-1; [1]) | IC50 (HL-1; [2]) | IC50 (HL-1; [3]) | IC50 (HL-1; [4]) | IC50 (HL-1; [5]) | IC50 (HL-1; [10]) | IC50 (HL-1; [6]) | IC50 (HL-1; [7]) | IC50 (HL-1; [8]) | IC50 (HL-1; [9]) | IC50 (H9c2; [10])
COc1ccc(NC(=O)CNC(=O)c2cc(-c3cc(OC)c(OC)c(OC)c3)nc3ccccc23)cc1 | 12.8 µM | 13.8 µM | 15.2 µM | 10.4 µM | 12 µM | 3.97 µM | 4.53 µM | > 79 µM | > 79 µM | 6.65 µM | 4.04 µM | 4.29 µM | 8.55 µM | 9.7 µM | 7.15 µM | 5.04 µM | 8.88 µM | 7 µM | 7.7 µM | –
CCOC(=O)c1cccc(NC(=O)CNC(=O)c2cc(-c3cc(OC)c(OC)c(OC)c3)nc3ccc(Br)cc23)c1 | 4.52 µM | 4.66 µM | 6.47 µM | 3.26 µM | 3.71 µM | 1.44 µM | 1.74 µM | 0.953 µM | 1.24 µM | 1.87 µM | 1.25 µM | 1.42 µM | 1.96 µM | 2.86 µM | 2.04 µM | 2.32 µM | 2.54 µM | 1.26 µM | 2.05 µM | 1.34 µM
COc1cc(-c2cc(C(=O)Nc3cccc(C(N)=O)c3)c3ccccc3n2)cc(OC)c1OC | – | 31.1 µM | 31.3 µM | > 79 µM | > 79 µM | 2.23 µM | 2.4 µM | 2.49 µM | 2.57 µM | 14.2 µM | 7.32 µM | 8.09 µM | 19.2 µM | 22.1 µM | 4.97 µM | 4.52 µM | 5.96 µM | 2.31 µM | 7.08 µM | 2.42 µM
COc1cc(-c2cc(C(=O)NCC(=O)O)c3ccccc3n2)cc(OC)c1OC | > 79 µM | > 79 µM | > 79 µM | > 79 µM | > 79 µM | > 79 µM | > 79 µM | > 79 µM | > 79 µM | > 79 µM | > 79 µM | > 79 µM | > 79 µM | > 79 µM | > 79 µM | > 79 µM | > 79 µM | > 79 µM | > 79 µM | –
CCNC(=O)c1cccc(NC(=O)c2cc(-c3cc(OC)c(OC)c(OC)c3)nc3ccccc23)c1 | 22.2 µM | 21.3 µM | 22.2 µM | 22.4 µM | 22.8 µM | 4.85 µM | 4.86 µM | 2.88 µM | 3.41 µM | 9.33 µM | 5.11 µM | 6.24 µM | 13 µM | 13 µM | 6.69 µM | 3.81 µM | 11.5 µM | 3.71 µM | 7.74 µM | 4 µM
COc1cc(-c2cc(C(=O)Nc3cccc(C(C)=O)c3)c3ccccc3n2)cc(OC)c1OC | > 79 µM | > 79 µM | > 79 µM | > 79 µM | > 79 µM | 3.74 µM | 4.04 µM | > 79 µM | 3.69 µM | 8.62 µM | 5.68 µM | 6.27 µM | 8.63 µM | 13.9 µM | 7.06 µM | 5.59 µM | 5.68 µM | 6.71 µM | 10.3 µM | –
CCOC(=O)c1cccc(NC(=O)c2cc(-c3cc(OC)c(OC)c(OC)c3)nc3ccc(OC)cc23)c1 | – | > 79 µM | 24.6 µM | 35.6 µM | 44.4 µM | 2.7 µM | 2.92 µM | 2.05 µM | 2.56 µM | – | 2.77 µM | 2.79 µM | > 79 µM | > 79 µM | – | 4.24 µM | 4.51 µM | > 79 µM | 2.3 µM | 2.56 µM
COc1cc(-c2cc(C(=O)NCC(=O)Nc3cccc(C(C)=O)c3)c3ccccc3n2)cc(OC)c1OC | 8.19 µM | 9.43 µM | 9.75 µM | 6.11 µM | 7.46 µM | 1.67 µM | 2.65 µM | 0.99 µM | 1.13 µM | 6.18 µM | 2.77 µM | 3.2 µM | 8.97 µM | 9.78 µM | 6.32 µM | 4.49 µM | 9.07 µM | 4.55 µM | 7.16 µM | 1.61 µM
COc1cc(-c2cc(C(=O)NCC(=O)Nc3cccc(C(C)=O)c3)c3cc(F)ccc3n2)cc(OC)c1OC | 6.15 µM | 7.04 µM | 8.51 µM | 4.17 µM | 4.87 µM | 1.53 µM | 1.98 µM | 0.789 µM | 0.865 µM | 6.37 µM | 3.22 µM | 3.87 µM | 8.99 µM | 9.39 µM | 6.46 µM | 5.91 µM | 5.98 µM | 5.45 µM | 8.51 µM | 1.29 µM
COc1cc(-c2cc(C(=O)NCC(=O)Nc3cccc(C(C)=O)c3)c3cccc(Cl)c3n2)cc(OC)c1OC | – | > 79 µM | 32.2 µM | 7.32 µM | 8.12 µM | 2.72 µM | 3.44 µM | 2.56 µM | 3.46 µM | 6.58 µM | 5.45 µM | 9.03 µM | 5.38 µM | 6.47 µM | – | > 79 µM | > 79 µM | 4.06 µM | 6.82 µM | 0.651 µM
CCOC(=O)c1cccc(NC(=O)CNC(=O)c2cc(-c3cc(OC)c(OC)c(OC)c3)nc3ccc(F)cc23)c1 | 3.79 µM | 4.83 µM | 5.33 µM | 1.98 µM | 3.04 µM | 0.838 µM | 0.849 µM | 0.526 µM | 0.541 µM | 2.58 µM | 1.56 µM | 1.76 µM | 3.27 µM | 3.74 µM | 2.38 µM | 1.7 µM | 3.23 µM | 1.98 µM | 2.6 µM | 0.688 µM
COc1ccc2c(c1OC)C(=O)N1c3ccccc3C(=O)N(Cc3ccccc3Br)C21 (stereo not drawn) | > 79 µM | > 79 µM | > 79 µM | > 79 µM | > 79 µM | > 79 µM | 2.03 µM | > 79 µM | > 79 µM | 13.4 µM | 2.54 µM | 2.85 µM | 13.9 µM | 34.4 µM | > 79 µM | > 79 µM | > 79 µM | > 79 µM | > 79 µM | –
COc1ccc2nc(-c3cc(OC)c(OC)c(OC)c3)cc(C(=O)NCC(=O)Nc3ccc(C(C)=O)cc3)c2c1 | 5.3 µM | 6.66 µM | 7.3 µM | 3.59 µM | 3.65 µM | 1.96 µM | 1.99 µM | 0.928 µM | 1.23 µM | 4.33 µM | 2.44 µM | 3 µM | 4.63 µM | 7.24 µM | 5.81 µM | 6.12 µM | 7.42 µM | 4.42 µM | 5.28 µM | 1.52 µM
CCOC(=O)c1cccc(NC(=O)CNC(=O)c2cc(-c3cc(OC)c(OC)c(OC)c3)nc3ccc(OC)cc23)c1 | 3.16 µM | 4.42 µM | 4.8 µM | 1.68 µM | 1.75 µM | 0.965 µM | 0.974 µM | 0.483 µM | 0.534 µM | 2.3 µM | 1.59 µM | 1.73 µM | 2.93 µM | 2.94 µM | 3.57 µM | 3.75 µM | 3.81 µM | 2.62 µM | 4.12 µM | 0.739 µM
CCOC(=O)c1cccc(NC(=O)c2cc(-c3cc(OC)c(OC)c(OC)c3)nc3ccc(Cl)cc23)c1 | > 79 µM | > 79 µM | > 79 µM | > 79 µM | > 79 µM | 3.38 µM | 21.1 µM | > 79 µM | > 79 µM | > 79 µM | > 79 µM | > 79 µM | > 79 µM | > 79 µM | – | > 79 µM | > 79 µM | 1.79 µM | 4.09 µM | –
CCOC(=O)c1cccc(NC(=O)CNC(=O)c2cc(-c3cc(OC)c(OC)c(OC)c3)nc3ccc(C)cc23)c1 | 2.67 µM | 3.13 µM | 3.54 µM | 1.85 µM | 2.18 µM | 0.726 µM | 0.842 µM | 0.517 µM | 0.577 µM | 2.2 µM | 1.1 µM | 1.45 µM | 2.9 µM | 3.35 µM | 3.04 µM | 2.88 µM | 3.32 µM | 1.46 µM | 4.48 µM | 0.665 µM
COc1cc(-c2cc(C(=O)Nc3cccc(C(=O)O)c3)c3ccccc3n2)cc(OC)c1OC | > 79 µM | > 79 µM | > 79 µM | > 79 µM | > 79 µM | > 79 µM | > 79 µM | > 79 µM | > 79 µM | > 79 µM | > 79 µM | > 79 µM | > 79 µM | > 79 µM | > 79 µM | > 79 µM | > 79 µM | > 79 µM | > 79 µM | > 79 µM
